These results are taken from patent US20180161300A1, “CITRIN INHIBITORS FOR THE TREATMENT OF CANCER” (Yeda Research And Development Co. Ltd., priority 2015, published 2018).

Data set [1] concerns Citrin. The experiment in a line: Western blot of citrin protein after shCitrin. It is filed as cell-based, human. The settings on record: MDA-MB-435, Dox induction. As to the method:
Cells were lysed in RIPA (Sigma-Aldrich) and 0.5% protease inhibitor cocktail (Calbiochem). After centrifugation, the supernatant was collected and protein content was evaluated by the Bradford assay. One hundred micrograms from each sample under reducing conditions were loaded into each lane and separated by electrophoresis on a 10% SDS polyacrylamide gel. After electrophoresis, proteins were transferred to Immobilon transfer membranes (Tamar). Non-specific binding was blocked by incubation with TBST (10 mM Tris-HCl (pH 8.0), 150 mM NaCl, 0.1% Tween 20), containing 3% albumin from bovine serum for 1 hour at 25° C. Membranes were subsequently incubated with antibodies against Citrin (1:200, H00010165-M01, Abnova), ASS1 (1:500, sc-99178, Santa Cruz Biotechnology) and p97 (1:10,000, PA5-22257, Thermo Scientific). Antibody was detected using peroxidase-conjugated AffiniPure goat anti-rabbit IgG or goat anti-mouse IgG (Jackson ImmunoResearch) and enhanced chemiluminescence Western blotting detection reagents (EZ-Gel, Biological Industries). Gels were quantified by Gel Doc XR+(BioRad) and analysed by ImageLab 4.1 software (BioRad). The band area was calculated by the intensity of the band. The obtained value was then divided by the value obtained from the loading control. […]
(In western blotting, separated proteins are transferred to a membrane and probed.)

The test system of data set [2] is U2OS human osteosarcoma cell-line transduced with shASS1. As to the kind of experiment: Crystal violet proliferation, arginine deprivation combined with drug treatments. It is filed as cell-based. As to the method:
Cells were seeded in 12-well plates at 70,000 cells/well in a triplicate. Time 0 was calculated as the time the cells became adherent, which was after about 6 hours from plating. For each time point, cells were washed with PBS X1 and fixed in 4% PFA (in PBS). Cells were then stained with 0.1% Crystal Violet (Catalog #: C0775, Sigma-Aldrich) for 20 minutes (1 ml per well) and washed with water. Cells were then incubated with 10% acetic acid for 20 minutes with shaking. Extract was then diluted 1:4 in water and absorbance was measured at 590 nm every 24 hours.
U2OS human osteosarcoma cell-line was seeded in 6-well plates at 80,000 cells/well. The following day, cells were treated with either 100 nM Rapamycin (#R0395, Sigma-Aldrich) or with 10 μM 5FU (#F6627, Sigma-Aldrich) in regular medium, with 10% dialyzed FCS-arginine-free-RPMI (Catalogue No. 06-1104-34-1A, Biological Industries, Kibbutz beit-haemek, Israel), or with both arginine depleted medium and one of these drugs. Rapamycin and 5FU were renewed into the medium every day, whereas fresh arginine-free medium was supplemented twice a week.

Data set [3] deals with T1, Citrin (Homo sapiens, UniProt Q9UJS0).
T1 sequence (Q9UJS0 1-675): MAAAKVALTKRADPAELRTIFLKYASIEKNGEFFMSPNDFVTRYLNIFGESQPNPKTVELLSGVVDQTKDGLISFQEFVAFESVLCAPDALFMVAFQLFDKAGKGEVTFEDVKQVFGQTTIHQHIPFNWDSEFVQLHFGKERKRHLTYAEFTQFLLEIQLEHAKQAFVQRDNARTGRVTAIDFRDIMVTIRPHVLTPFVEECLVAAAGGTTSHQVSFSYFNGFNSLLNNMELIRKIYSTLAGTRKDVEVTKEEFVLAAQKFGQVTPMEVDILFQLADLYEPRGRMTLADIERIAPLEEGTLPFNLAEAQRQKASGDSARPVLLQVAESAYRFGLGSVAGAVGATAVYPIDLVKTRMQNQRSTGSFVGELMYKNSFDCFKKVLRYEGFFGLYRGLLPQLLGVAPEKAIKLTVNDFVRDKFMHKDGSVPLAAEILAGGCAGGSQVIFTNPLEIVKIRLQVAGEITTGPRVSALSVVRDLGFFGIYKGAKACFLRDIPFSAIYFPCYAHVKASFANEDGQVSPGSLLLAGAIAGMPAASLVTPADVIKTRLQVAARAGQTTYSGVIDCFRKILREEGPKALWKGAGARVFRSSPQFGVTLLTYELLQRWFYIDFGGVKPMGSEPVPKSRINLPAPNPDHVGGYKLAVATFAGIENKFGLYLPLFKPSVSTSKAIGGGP
The experiment in a line: Metabolomics analysis for potential citrin inhibitors (15N-alpha-glutamine labelling, GC-MS). It is filed as cell-based. Further details: endogenous in cells; host or cells: U2OS osteosarcoma cells. The settings on record: U2OS, 4 mM L-Glutamine (ALPHA-15N), compound 10-100 μM, 24 hours. As to the method:
Osteosarcoma cell line (U2OS) were seeded at 1.5 to 2×10^6 cells per 10 cm plate. The next day (60% confluence) the cells were incubated with 4 mM of L-Glutamine (ALPHA-15N, 98%; Cat. Number: NLM-1016-1; Cambridge Isotope Laboratories) in the presence of either control (medium only) or one of compounds 1, 2, or 3 (at a concentration range between 10-100 μM), for 24 hours. Compound “1”=D-Glutamic acid; compound “2”=L-glutamic acid-5-methyl ester; “compound “3”=L-glutamic acid-gamma-benzyl ester. Compounds 1-3 are commercially available and were bought from Sigma Aldrich. Subsequently, cells were washed with ice-cold saline, lysed with 50% methanol in water and quickly scraped followed by three freeze-thaw cycles in liquid nitrogen. The insoluble material was pelleted in a cooled centrifuge (4° C.) and the supernatant was collected for consequent GC-MS analysis. Samples were dried under air flow at 42° C. using a Techne Dry-Block Heater with sample concentrator (Bibby Scientific) and the dried samples were treated with 40 μl of a methoxyamine hydrochloride solution (20 mg ml^−1 in pyridine) at 37° C. for 90 minutes while shaking followed by incubation with 70 μl N,O-bis (trimethylsilyl) trifluoroacetamide (Sigma) at 37° C. for an additional 30 minutes.
GC-MS analysis used a gas chromatograph (7820AN, Agilent Technologies) interfaced with a mass spectrometer (5975 Agilent Technologies). An HP-5 ms capillary column 30 m×250 μm×0.25μm (19091S-433, Agilent Technologies) was used. Helium carrier gas was maintained at a constant flow rate of 1.0 ml min −1. The GC column temperature was programmed from 70 to 150° C. via a ramp of 4° C. min −1, […] via a ramp of 9° C. min −1, 215-300° C. via a ramp of 25° C. min −1 and maintained at 300° C. for an additional 5 minutes. The MS was by electron impact ionization and operated in full-scan mode from m/z=30-500. The inlet and MS transfer line temperatures were maintained at 280° C., and the ion source temperature was 250° C. Sample injection (1 μl) was in splitless mode.
Specifically, Aspartate at a mass of M+1 is a metabolite that comes out of the mitochondria via Citrin.

Data set [4] concerns the target T1, Citrin. The settings on record: at 1 about mM; cited from earlier work.

For “5′-GTATCCTATCGATCTTGTA-3′ (expressed or natural sequence) [sh909]”, the “citrin protein production (Western blot)” value in the data set on Citrin [1] was “no production of citrin”.

With “5′-TTAAGAAAGTGCTACGCTA-3′ (expressed or natural sequence) [sh901]”, the “citrin protein production (Western blot)” value in the data set with Citrin [1] was “no production of citrin”.

Turning to `O=c1[nH]cc(F)c(=O)[nH]1` [5FU, Fluorouracil], in data set [2] (U2OS shASS1, arginine depleted medium plus 100 nM Rapamycin or 10 μM 5FU), the “proliferation, drug together with arginine depleted medium” value is given as “significant additive beneficial effect”. Besides, the “proliferation, isolated drug treatment” value in data set [2] (U2OS shASS1, complete medium, 100 nM Rapamycin or 10 μM 5FU) is given as “more beneficial than Rapamycin”.

For the compound `N[C@H](CCC(=O)O)C(=O)O` [Compound 1, D-Glutamic acid], at Citrin [3], the “Uracil M+1 inhibition (in words)” value is recorded as “inhibited”.

Take `COC(=O)CC[C@H](N)C(=O)O` [Compound 2, L-glutamic acid-5-methyl ester]: the “Uracil M+1 inhibition (in words)” value at Citrin [3] is listed as “inhibited”.

Consider `N[C@@H](CCC(=O)OCc1ccccc1)C(=O)O` [Compound 3, L-glutamic acid-gamma-benzyl ester], for which, on Citrin [3], the “Aspartate M+1 relative to control” value is “inhibited” and the “Uracil M+1 inhibition” value is recorded as approximately 35%.

For `CCN1C(=O)C=CC1=O` [N-ethylmaleimid], the “inhibition of citrin in vitro” value at Citrin [4] was “about 50%”.
